Measured values published in US7767685B2, “Adenosine A2B receptor antagonists” (King Pharmaceuticals Research and Development, Inc., priority 2006, dated 2010).

Target: T1, human A3 adenosine receptors (Homo sapiens, UniProt P0DMS8)
T1 construct: expressed in transfected cells; host or cells: CHO cells (membranes)
T1 sequence (P0DMS8 1-318): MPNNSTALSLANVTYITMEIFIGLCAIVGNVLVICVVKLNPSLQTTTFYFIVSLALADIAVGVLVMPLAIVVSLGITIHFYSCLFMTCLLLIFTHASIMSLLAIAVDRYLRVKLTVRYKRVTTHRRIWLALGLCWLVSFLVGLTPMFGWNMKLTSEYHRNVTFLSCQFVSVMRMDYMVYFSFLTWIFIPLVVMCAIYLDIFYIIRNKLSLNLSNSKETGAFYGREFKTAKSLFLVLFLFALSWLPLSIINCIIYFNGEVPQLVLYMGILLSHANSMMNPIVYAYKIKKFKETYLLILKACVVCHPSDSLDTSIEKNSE
Assay: Displacement of [3H]MRE3008F20 binding at human A3 adenosine receptors expressed in CHO cells
Conditions: [3H]MRE3008F20 displacement, n = 3-6 (footnote mark c/d swapped), geometric mean (95% confidence limits), read-out: Ki hA3
Description: The human adenosine receptors have been transfected in CHO cells according with the method previously described by Klotz et al. (Naunyn-Schmied. Arch Pharm. 1998, 357: 1-9). Briefly, the cells are grown adherently and maintained in Dulbecco's Modified Eagles Medium with nutrient mixture F12 (DMEM/F12) without nucleosides, containing 10% fetal calf serum, penicillin (100 U/mL), streptomycin (100 μg/mL), L-glutamine (2 mM) and Geneticin (G418, 0.2 mg/ml) at 37° C. in 5% CO2/95% air. For membrane preparation the culture medium is removed and the cells are washed with phosphate-buffered saline and scraped off T75 flasks in ice-cold hypo tonic buffer (5 mM Tris HCl, 1 mM EDTA, pH 7.4). […]
All new synthesized compounds have been tested to evaluate their affinity to human A1, A2A, A2B and A3 adenosine receptors. […] Non-specific binding is determined in the presence of 10 μM of CHA and this is always ≦10% of the total binding. […] Non-specific binding is determined in the presence of 1 μM ZM 241385 and is about 20% of total binding. […] Bound and free radioactivity are separated by filtering the assay mixture through Whatman GF/B glass fiber filters using a Micro-Mate 196 cell harvester (Packard Instrument Co.). The filter bound radioactivity is counted on a Top Count (efficiency 57%) with Micro-Scint 20. […]

Ki: > 1000 nM
SMILES: CCCn1c(=O)c2[nH]c(-c3cc(C)n(CC(=O)Nc4ccc(C(C)CC)cc4)n3)nc2n(CCC)c1=O (stereo not shown) [Example 12, 2-[3-(2,6-Dioxo-1,3-dipropyl-2,3,6,7-tetrahydro-1H-purin-8-yl)-5-methyl-pyrazol-1-yl]-N-(4-sec-butylphenyl)-acetamide]
